Ends that are not written are not given here.
Key:
SH3 domain = target: T1, SH3 domain (Gallus gallus, UniProt P00523); assay: Direct tryptophan fluorescence spectroscopy titration; assay type: binding, chicken; conditions: 1 μM SH3, 15 mM NaCl and 10 mM NaHPO4, pH 7.2; Scatchard analysis
T1 construct: Residues 81 to 140 of chicken c-SRC were cloned; modified TrpLE leader (Met to Leu, Cys to Ala) (N, cleaved yes); His9 within the C-terminal region of the TrpLE leader (N, cleaved yes); made in house; host or cells: E. coli in M9 medium with (15NH4)2SO4, plasmid pMMHb-SRC SH3
Experimental: (§1) The affinity of Pep-DI for the L-SH3 domain was determined by a competitive enzyme-linked immunosorbent assay (ELISA). Single wells of a 96-well plate were coated with 5 μg of the L-SH3 domain (Scott, J. K. and Smith, G. P., Science, 249:386 (1990); Smith, G. P. and Scott, J. K., Methods in Enzymol., 217:228 (1993)). Wells were blocked with BSA, and phages expressing the L-SH3-binding insert […] (SEQ ID NO: 10) were allowed to bind in 10 mM NaHPO4, pH 7.2, 15 mM NaCl, 1 mg/ml of BSA, 0.05% NaN3, and 0.1% Tween 20, in the presence of increasing amounts of competitor peptide. Phage binding was quantified with a rabbit M13 antibody (Stratagene) and alkaline phosphatase-labeled goat antibody to rabbit (Pierce), with a fresh solution of p-nitrophenol phosphate as substrate. Absorbance at 410 nm was determined with a Dynatech micotiter plate reader. […] Relative values for Kd were obtained as described (Minor, D. L., Jr. and Kim, P. S., Nature, 367:660 (1994)). […] A solution of the peptide was titrated into 1 μM SH3 solution in 15 mM NaCl and 10 mM NaHPO4, pH 7.2. Tryptophan fluorescence was induced by excitation at 295 nm (5 nm slit width), and emission was measured at 339 nm (10 nm slit width), with a Hitachi F-4500 fluorescence spectrometer. The dissociation constant was determined by Scatchard analysis.

(L)-SH3 = target: T2, (L)-SH3 (Gallus gallus, UniProt P00523); assay: Retention of bacterially expressed (L)-SH3 on peptide affinity column; assay type: binding; conditions: residues 81-140 of chicken c-Src
T2 construct: E. coli BL21(DE3) pLysS, pMMHb TrpLE-His9 fusion, cleaved with CNBr
Experimental: The L- and D-enantiomers of the chicken c-SRC domain were prepared by bacterial expression and chemical synthesis, respectively. The biotinylated, synthetic, 60-amino acid D-SH3 domain was refolded and purified by affinity chromatography, with a D-amino acid version of a known peptide ligand for the SH3 domain (Yu, H., et al., Cell, 76:933 (1994)).
The all D amino acid SH3 domain, sequence […] S-COOH-terminus (SEQ ID No: 1), residues 81-140 of chicken c-SRC, was synthesized on HMP resin (ABI/Perkin Elmer) with an ABI 431A peptide synthesizer and ABI fastmoc cycles (Fmoc chemistry with HBTU activation and capping with acetic anhydride). Protected D-amino acids were obtained from Bachem California., Bachem Bioscience, Advanced Chemtech, and Novabiochem. For D-Ile and D-Thr, the side chain enantiomers were used, in which the chirality of the side chain is also inverted relative to naturally occurring L-Thr and L-Ile. After completion of the synthesis, the NH2 -terminus of the peptide was modified with NHS-LC-biotin II (Pierce). After cleavage, the peptide was lyophilized, dissolved in 6 M guanidine HCl, pH 6.0, and dialyzed against 100 mM NaHPO4 and 100 mM NaCl, pH 6.0, with the use of dialysis tubing with a molecular cutoff of 3,500 daltons (D) (Spectra/Por). […]

L-SH3 domain = target: T3, L-SH3 domain (Gallus gallus, UniProt P00523); assay: Competitive enzyme-linked immunosorbent assay (ELISA) for L-SH3 binding; design: species or system chicken; conditions: L- and D-amino acid ligands
T3 construct: Residues 81 to 140 of chicken c-SRC were cloned; modified TrpLE leader (Met to Leu, Cys to Ala) (N, cleaved yes); His9 within the C-terminal region of the TrpLE leader (N, cleaved yes); made in house; host or cells: Escherichia coli BL21(DE3) pLysS, plasmid pMMHb-SRC SH3
Experimental: as §1

Substance	Kd (SH3 domain)	retention of bacterially expressed (L)-SH3 on peptide column ((L)-SH3)	competition with the L-amino acid ligand (L-SH3 domain)
YGGRELPPLPRF-NH2	6 µM	can be retained on the (L)-enantiomer	
(D)-RCLSGLRLGLVPCA [Pep-D1]			competition observed for the binding of these two ligands

Source: US5780221A, “Identification of enantiomeric ligands” (Whitehead Institute for Biomedical Research, priority 1996, dated 1998)
